Results reported in patent US8648045B2, “VDAC1 compositions and methods of use thereof for regulating apoptosis” (Ben Gurion University of the Negev Research and Development …, priority 2005, dated 2014).
Ends that are not written are not given here.

What was measured:
[1] = tested on: HeLa
Protocol: (§1) To determine apoptosis, cells were subjected to staining with 100 μg/ml acridine orange (AcOr) and 100 μg/ml ethidium bromide (EtBr) in PBS. Cells were centrifuged at 1500×g for 5 min at room temperature and resuspended in 25 μl complete medium, to which 2 μl of an AcOr/EtBr solution were added. The cells were then visualized by fluorescence microscopy (Olympus IX51) and images were recorded with an Olympus DP70 camera, using a SWB filter. In each independent experiment, in which early and late apoptotic cells were counted, approximately 250 cells were counted for each treatment.
The effect of the peptides N-ANTP (having the amino acid sequence of SEQ ID NO:73) and ANTP-LP4-trp (having the amino acid sequence of SEQ ID NO:15) on apoptotoc cell death was examined with cancer cells of various trypes.
(§2) All cells were grown in DMEM accept PC3, D-U145, Molt-4, Jurkat, Mec-1, U937 grown in RPMI medium and HUH7 grown in F12/DMEM medium.

[2] = tested on: AsPC1; format: cell-based
Protocol: as §1
(§3) The effect of the peptides N-ANTP (having the amino acid sequence of SEQ ID NO:73) and ANTP-LP4-trp (having the amino acid sequence of SEQ ID NO:15) on apoptotoc cell death was examined with cancer cells of various trypes. Table 6 below summarizes the cell line examined and concentration of each pepetide that gave 50% apoptotic cell death (IC50, μM).
as §2

[3] = tested on: MDA-MB-231; format: cell-based
Protocol: as §1, §3, §2

[4] = tested on: MCF7; format: cell-based
Protocol: as §1, §3, §2

[5] = tested on: K562; format: cell-based
Protocol: as §1, §3, §2

[6] = tested on: H358; format: cell-based
Protocol: as §1, §3, §2

[7] = tested on: SKOV-3; format: cell-based
Protocol: as §1, §3, §2

[8] = tested on: A549; format: cell-based
Protocol: as §1, §3, §2

[9] = tested on: A375; format: cell-based
Protocol: as §1, §3, §2

[10] = tested on: JURKAT; format: cell-based
Protocol: as §1, §3, §2

[11] = tested on: THP-1; format: cell-based
Protocol: as §1, §3, §2

[12] = tested on: HUH7; format: cell-based
Protocol: as §1, §3, §2

[13] = tested on: T3M4; format: cell-based
Protocol: as §1, §3, §2

[14] = tested on: Hep-G2; format: cell-based
Protocol: as §1, §3, §2

[15] = tested on: PBMCs isolated from healthy donors; experiment: Cell death, PI staining and FACS; format: cell-based, human; details: 90 min, n=34
Protocol: Peripheral blood mononuclear cells (PBMCs) were isolated from venous blood of patients with chronic lymphocytic leukemia (CLL) by Ficoll-Paque PLUS (GE Healthcare, Israel) density gradient centrifugation. After informed consent, venous blood (10 ml) was drawn from CLL patients satisfying diagnostic criteria for CLL or from normal adult donors. […]
PBMCs (2×10^6 cells/sample) from CLL patients and healthy donors were treated with various concentrations of the peptide Antp-LP4-trp for 90 minutes. Cells were then gently washed once with PBS and stained with propidium iodide (PI) by adding 2.5 μl (1 mg/ml) and immediately analyzed for cell death. The level of cell death, reflected by the percentage of PI-positive cells, was determined by a flow cytometry analysis. […]

[16] = tested on: MEC-1 cell line; format: cell-based, human
Protocol: (§4) PBMCs (2×10^6 cells/sample) from CLL patients and healthy donors were treated with various concentrations of the peptide Antp-LP4-trp for 90 minutes. Cells were then gently washed once with PBS and stained with propidium iodide (PI) by adding 2.5 μl (1 mg/ml) and immediately analyzed for cell death. The level of cell death, reflected by the percentage of PI-positive cells, was determined by a flow cytometry analysis.
(§5) Preipheral blood mononuclear cells (PMBC) isolated from pateints having chronic lymphocytic leukemia (CLL) and MEC-1 cell lines (human chronic B-cell leukemia) were incubated for 90 min with Peptide N-ANTP (SEQ ID NO:73) at concentrations of 10-40 μM. Cell death was measured by PI staning and FACS analysis.

[17] = tested on: U937; format: cell-based, human
Protocol: as §1, §3, §2

[18] = tested on: U87; format: cell-based, human
Protocol: as §1, §3, §2

[19] = tested on: MOLT-4; format: cell-based, human
Protocol: as §1, §3, §2

[20] = tested on: T-Rex; format: cell-based, human
Protocol: as §1, §3, §2

[21] = tested on: Mec-1; format: cell-based, human
Protocol: as §1, §3, §2

[22] = tested on: Panc-1; format: cell-based, human
Protocol: as §1, §3, §2

[23] = tested on: U937, MOLT4 and MEC-1 cells; experiment: Cancer cell death by L- or D-amino acid peptide; format: cell-based, human; details: average of two experiments
From the text: The results are average of two experiments

[24] = tested on: PBMCs isolated from CLL patients; format: cell-based, human
Protocol: Peripheral blood mononuclear cells (PBMCs) were isolated from venous blood of patients with chronic lymphocytic leukemia (CLL) by Ficoll-Paque PLUS (GE Healthcare, Israel) density gradient centrifugation. After informed consent, venous blood (10 ml) was drawn from CLL patients satisfying diagnostic criteria for CLL or from normal adult donors. Blood was collected into heparin tubes and diluted 1:1 with balance solution (composed of two stock solutions, A and B, in 1:9 ratio, respectively. Solution A contained: D-glucose 1%, CaCl2 5×10^−5M, MgCl2 9.8×10^−4M, KCl 5.4×10^−3M, Tris 0.145M, pH 7.6. Solution B contained NaCl 0.14M. The balance solution was prepared freshly every week. The diluted blood sample was subsequently carefully layered on Ficoll-Paque Plus (10 ml of diluted blood: 15 ml Ficoll) in 50 ml conical tubes. Tubes were centrifuged at 400×g (with minimal acceleration and deceleration) for 40 minutes at 18-20° C. The mononuclear cells fine layer was transferred to a new centrifuge tube. Cells were washed 3 times with balance solution and re-suspended in a culture medium appropriate to the application.
as §4, §5
In ex vivo experiments, peripheral blood mononuclear cells (PBMCs) isolated from healthy individuals or CLL patients were incubated for 90 min with the indicated concentration of the ANTP-LP4-trp peptide. Cell death was assayed by PI staining and FACS analysis (healthy donors, n=34; CLL donors, n=39).

[25] = tested on: PBMCs; format: cell-based, human
Protocol: as §1, §3, §2

[26] = format: physicochemical
Protocol: The peptides N-ANTP (C-terminus), ANTP-LP4-trp, TAT-LP4-trp and Tf-LP4-trp were synthesized by GL Biochem (Shanghai, China). The N-terminal peptide was water-soluble, while the other peptides were dissolved in DMSO. The concentration of DMSO in control and peptide-containing samples was up to 4%.

[27] = tested on: PC-3; experiment: Apoptosis induction by peptides, IC50; format: cell-based; details: PC-3, Prostate adenocarcinoma, Mut-P53, Androg↑
Protocol: as §1, §3, §2

| Molecule | IC50 [1] [nM] | IC50 [2] [µM] | IC50 [3] [nM] | IC50 [4] [nM] | IC50 [5] [nM] | IC50 [6] [nM] | IC50 [7] [nM] | IC50 [8] [nM] | IC50 [9] [µM] | IC50 [10] [nM] | IC50 [11] [nM] | IC50 [12] [nM] | IC50 [13] [nM] | IC50 [14] [nM] | IC50 [16] [nM] | IC50 [17] [nM] | IC50 [18] [nM] | IC50 [19] [nM] | IC50 [20] [µM] | IC50 [21] [nM] | other results |
| --- | --- | --- | --- | --- | --- | --- | --- | --- | --- | --- | --- | --- | --- | --- | --- | --- | --- | --- | --- | --- | --- |
| CC[C@H](C)[C@H](NC(=O)[C@H](CCCCN)NC(=O)[C@@H](NC(=O)[C@H](CCC(N)=O)NC(=O)[C@H](CCCNC(=N)N)NC(=O)[C@@H](N)CCSC)[C@@H](C)CC)C(=O)N[C@@H](Cc1c[nH]c2ccccc12)C(=O)N[C@@H](Cc1ccccc1)C(=O)N[C@@H](CCC(N)=O)C(=O)N[C@@H](CC(N)=O)C(=O)N[C@@H](CCCNC(=N)N)C(=O)N[C@@H](CCCNC(=N)N)C(=O)N[C@@H](CCSC)C(=O)N[C@@H](CCCCN)C(=O)N[C@@H](Cc1c[nH]c2ccccc12)C(=O)N[C@@H](CCCCN)C(=O)N[C@@H](CCCCN)C(=O)N[C@@H](CO)C(=O)N[C@@H](Cc1c[nH]c2ccccc12)C(=O)N[C@H](C(=O)N[C@@H](Cc1c[nH]c2ccccc12)C(=O)N[C@@H](CCC(=O)O)C(=O)N[C@@H](CCCCN)C(=O)N[C@@H](CCCCN)C(=O)N[C@@H](CC(C)C)C(=O)N[C@@H](CCC(=O)O)C(=O)N[C@H](C(=O)N[C@@H](C)C(=O)N[C@H](C(=O)N[C@@H](CC(N)=O)C(=O)N[C@@H](CC(C)C)C(=O)N[C@@H](C)C(=O)N[C@@H](Cc1c[nH]c2ccccc12)C(=O)N[C@H](C(=O)N[C@@H](C)C(=O)NCC(=O)N[C@@H](CC(N)=O)C(=O)N[C@@H](CO)C(=O)N[C@@H](CC(N)=O)C(=O)N[C@@H](CCCCN)C(=O)N[C@@H](Cc1c[nH]c2ccccc12)C(=O)N[C@H](C(=O)N[C@@H](Cc1c[nH]c2ccccc12)C(=O)N[C@@H](CCCCN)C(=O)O)[C@@H](C)O)[C@@H](C)O)C(C)C)[C@@H](C)O)[C@@H](C)O [ANTP-LP4-trp] | 900 ± 30 | 2.7 ± 1.7 | 1600 ± 600 | 1900 ± 40 | 260 ± 100 | 1500 ± 500 | 1000 ± 200 | 1500 ± 200 | 6.4 ± 0.6 | 230 ± 100 | 300 ± 100 | 600 ± 300 | 500 ± 200 | 1600 ± 600 | < 2000 | 280 ± 100 | 1400 ± 500 | 760 ± 200 | 6.5 ± 0.9 | 530 ± 100 | effect on PBMCs isolated from healthy donors [15]: marginal; IC50 [22]: 6.4 ± 0.6 µM; cell-death induction, L- versus D-amino acid peptide [23]: irrespective to the D/L configuration; IC50 [24]: 200 to 250 nM; correlation between relative amount of cancer cells (CD19+/CD5+) and peptide-induced cell death ([24]; 0.375 μM): tight correlation; cell death of CLL-derived PBMCs ([24]; 90 min, CLL donors, n=39): highly effective in inducing cancer cell death |
| MAVPPTYADLGKSARDVFTKGYGFGLMRQIKIWFQNRRMKWKK [N-ANTP] | 2700 ± 800 | 6.1 ± 0.1 | 1500 ± 300 | 2500 ± 600 | 600 ± 400 | 2700 ± 200 | 2000 ± 800 | 2700 ± 500 | 2.8 ± 0.4 | 350 ± 500 | 530 ± 30 | 1300 ± 300 | 1300 ± 400 | 3600 ± 1300 | 3000 to 4000 | 580 ± 200 | 1400 ± 600 | 1100 ± 300 | 5.6 ± 0.9 | 930 ± 100 | IC50 [25]: 10.1 ± 1.2 µM; IC50 [22]: 6.2 ± 0.6 µM; solubility [26]: water-soluble; IC50 [27]: 400 ± 100 nM; IC50 [24]: 3000 to 4000 nM |
